Data published in patent publication US20200360471A1, “METHODS OF TREATING AND PREVENTING VIRAL INFECTIONS” (priority 2017, published 2020).
Peptide text beside a SMILES is read from it.

Legend:
[1] = test system: TLR7; assay: imiquimod-induced cytokine responses in PBMC cultures with peptide pre-treatment; format: cell-based, human
Method: (§1) Primary cell cultures were prepared in RPMI including 5% autologous plasma. Isolated PBMC cells were cultured in 96-well plates at a density of 0.5×10^6cells/well at 37° C., under humidified 5% CO2.
(§2) IL-1β, TNFα, IL-6 and IL-8 were measured simultaneously with a fixed electrochemoluminescence platform based on the sandwich ELISA principle of capture and detection antibodies, produced by MESO SCALE DISCOVERY (MSD, MESO SCALE QUICKPLEX SQ120). The applied assay was the V-PLEX PLUS pro-inflammatory cytokine panel II, including IL-1β, TNFα, IL-6 and IL-8. This assay includes manufacturer-provided control samples with indicated nominal values for comparison. These lyophilized controls, i.e. freeze-dried controls for IL-1β, TNFα, IL-6, IL-8, were prepared freshly at the time of use. QC samples were prepared from the calibrator at 3 different concentrations along the standard curve as multiple aliquots from a single batch and maintained at −20° C. Low, medium and high concentration controls were included in every multiplex assay run to control intra- and inter-assay variation. V-PLEX panels are specific for the detection of human chemokines and cytokines, and combinations have been validated by the manufacturer, to ensure no cross-reactivity.
(§3) IFNα was quantified by a sandwich ELISA based on specific capture and detection antibodies for various matrices (MABTECH), according to the manufacturer's instructions. QC samples were prepared from the calibrator at 3 different concentrations along the standard curve as multiple aliquots from a single batch and maintained at −20° C.
as §3, with “IFNβ” for “IFNα”, “(PBL ASSAY SCIENCE),” for “(MABTECH),”, “C. freezer.” for “C.”
(§4) Briefly, PBMC primary cultures were prepared from 4 healthy donors (2 males, 2 females) as described above. […] The cultures were prepared in duplicate and the readouts for pan-IFNα and IFNβ (ELISA) were measured once. Five-point concentration-response curves were constructed for the various treatment conditions in the PBMC cultures, freshly isolated from 4 subjects.

[2] = test system: TLR9; assay: TLR9-mediated interferon responses in PBMC cultures (IFN-α ELISA); format: cell-based, human
Method: CpG motifs are present in a variety of DNA viruses and CpG signaling is relevant to host defense against viral infections. Briefly, PBMC primary cultures were prepared from 2 donors. […] E. coli ssDNA (5 μg/mL) or PBS (unstimulated). The readouts for IFN-α in cell supernatant were measured by ELISA.

[3] = test system: TC-1 tumor; assay: Tumor outgrowth and flow cytometry after intratumoral injections in TC-1 mice; format: in vivo
Method: Tumor growth was measured at days 9, 10, 12, 14, and 16.
Tumor growth was measured at day 9 (one day before injection), 10, 12, 14 and day 16 (at sacrifice).

[4] = test system: HPV6 and HPV11; assay: HPV viral load (qPCR) in swabs of target wart; format: in vivo
Method: The treatment period was from day 0 till day 84. During the treatment period subjects visited the clinical unit on days 0, 14, 28, 56 and 84. A fixed dose of omiganan or placebo was applied once daily. Two follow up visits were scheduled on days 126 and 168. During study execution, vital signs were measured on days 0, 14, 28, 56 and 84. Pharmacodynamic assessments were performed on day 0 (pre-dose), 14, 28, 56 and 84, respectively. Punch biopsies were performed at the screening and on days 56 and 168. Subjects were dosed 84 consecutive days with approximately 24 hours between each treatment.
HPV viral load in swabs. Swabs were taken from the target wart (or site where target wart was) at every study visit. A quantitative PCR (qPCR) of the swabs was performed for HPV6 and HPV11 to determine the viral load of the specific HPV. Swab samples were collected at day 0, 14, 28, 56, 84 (EOT), […] and 168 (EOS). In FIGS. 22A and 22B, the qPCR was expressed as copies/μL and natural log transformed. In FIGS. 23A and 23B, the qPCR was expressed as copies/μL, natural log transformed and also corrected for the amount of DNA in the sample.

[5] = test system: TLR3/RIG-1/Mda5; assay: polyI:C-induced cytokine responses in PBMC cultures with peptide pre-treatment; format: cell-based, human; settings: 5 or 25 μg/mL peptide, 30 min pre-treatment, 24 hrs
Method: as §1, §2, §3
as §3, with “IFNβ” for “IFNα”, “(PBL ASSAY SCIENCE),” for “(MABTECH),”, “C. freezer.” for “C.”
as §4

[6] = test system: TLR7; assay: Ongoing inflammation in PBMC cultures: imiquimod 3 hrs followed by omiganan 21 hrs; format: cell-based, human
Method: as §1, §2
Briefly, PBMC primary cultures were prepared from 4 donors. […] The readouts for the following cytokine and chemokine release were measured: IL-1β, IL-2, IL-4, IL-6, IL-8 HA, IL-8, IL-12p70, IL-13, IFN-γ, and TNF-α were measured. The cultures were prepared in duplicate.

[7] = 5 or 25 μg/mL peptide, 30 min pre-treatment, 24 hrs
[8] = right-shift of imiquimod concentration response curves
[9] = 6.25 or 25 μg/mL omiganan 30min pre-incubation, 24hr
[10] = omiganan 25, 12.5, 6.25 μg/mL added after 3 hour imiquimod
[11] = omiganan added after 3 hour imiquimod, effect less obvious

Compound: CC[C@H](C)[C@H](N)C(=O)N[C@@H](CC(C)C)C(=O)N[C@@H](CCCNC(=N)N)C(=O)N[C@@H](Cc1c[nH]c2ccccc12)C(=O)N1CCC[C@H]1C(=O)N[C@@H](Cc1c[nH]c2ccccc12)C(=O)N[C@@H](Cc1c[nH]c2ccccc12)C(=O)N1CCC[C@H]1C(=O)N[C@@H](Cc1c[nH]c2ccccc12)C(=O)N[C@@H](CCCNC(=N)N)C(=O)N[C@@H](CCCNC(=N)N)C(=O)N[C@@H](CCCCN)C(N)=O [omiganan, I L R W P W W P W R R K] (H-ILRWPWWPWRRK-NH2)
- IL-6 responses to imiquimod (TLR7) [1, 7]: inhibited
- TNFα responses to imiquimod (TLR7) [1, 7]: inhibited
- interferon responses in the presence of imiquimod ([1]; 5 or 25 μg/mL peptide, 30 min pre-treatment, 24 hrs, PBMC of 4 donors): induced strong interferon responses
- IL-1(3 responses to imiquimod (TLR7)) [1, 8]: inhibited
- IL-8 responses to imiquimod (TLR7) [1, 8]: inhibited
- CpG-A IFN-α responses [2, 9]: strongly enhanced
- CpG-B IFN-α responses [2, 9]: did so strongly
- CpG-C IFN-α responses [2, 9]: concentration-dependently enhanced
- ssDNA-driven IFN-α responses ([2]; omiganan pre-incubation, E. coli ssDNA 5 μg/mL): initial inhibition of cytokine release at low omiganan concentrations, and an enhancement of cytokine release at higher omiganan concentrations
- tumor outgrowth compared to PBS-treated mice ([3]; 30 nmol intratumoral on days 10, 12, 14): reduction in tumor outgrowth
- CD11c expression of Ly6C-low macrophages in TC-1 tumors (macrophage phenotype) ([3]; flow cytometry after three intratumoral injections): lower CD11c expression
- viral load of HPV6 in swabs ([4]; during omiganan treatment): strong trend toward reduction
- HPV6 and HPV11 viral load compared to placebo ([4]; swabs, qPCR, at EOT, p=0.0201): statistical significant decrease
- IL-6 responses to polyI:C (TLR3/RIG-1/Mda5) [5]: did not significantly affect
- TNFα responses to polyI:C (TLR3/RIG-1/Mda5) [5]: did not significantly affect
- polyI:C-driven IL-1β release [5]: did not significantly affect
- spontaneous and polyI:C-driven IL-8 release [5]: strongly inhibited
- interferon responses induced by polyI:C stimulation ([5]; PBMC of 4 donors): enhanced
- IL-1β response [6, 10]: did not significantly modify
- IL-8 response [6, 10]: significantly enhanced
- IL-6 response [6, 11]: enhanced
- TNF-α response [6, 11]: enhanced
